Test results from patent publication US12403114B2, “Cannabinoid acid ester compositions and uses thereof” (EPM (IP), INC., priority 2019, dated 2025).

Experiments:
[1] = system: partial meniscectomy/ACL transection rat model of surgical induced osteoarthritis; test: Morphological evaluation of the joint surfaces (osteophyte, gross surface, articular surface damage), Example 6; assay type: in vivo
Description: Morphological evaluation of the joint surfaces was performed using digital images of the joint. The parameters evaluated included percentage of articular surface damage of the proximal tibia calculated as the area of lesions divided by the total condylar surface area, gross surface score and osteophyte score as described (Yanagisawa et al. BMC Musculoskeletal Disorders. April 2016; 17:188).
The gross finding score in the articular cartilage was graded as follows: • (i) Grade 1—intact articular surface; • (ii) Grade 2—minimal osteophyte; • (iii) Grade 3—over spur formation; • (iv) Grade 4—width of erosion area 0 to 0.5 mm • (v) Grade 5—width of erosion area 0.5 to 1 mm. • (vi) Grade 6—width erosion area 1 to 1.5 mm • (vii) Grade 7—width of erosion area 1.5 to 2.0 mm • (viii) Grade 8—width of erosion area >2.0 mm
The osteophyte score was graded as follows: • (i) Grade 0—normal around the medial tibia; • (ii) Grade 1—osteophyte formation ⅓ around the medial tibia; • (iii) Grade 2—osteophyte formation halfway around the medial tibia; • (iv) Grade 3—osteophyte formation ⅔ around the medial tibia; • (v) Grade 4—osteophyte formation all around the medial tibia.

[2] = system: DSS induced acute colitis; test: DSS induced acute colitis mouse model, EPM-301 versus EPM-302, Example 13; assay type: in vivo, C57BL/6 mice
Description: Colitis was induced in 10 weeks old female C57BL/6 mice using dextran sodium sulphate (DSS). Mice were fed for 8 days with 2% (wt/vol) DSS in their drinking water. […] EPM-302 served as an additional control.
Weight loss was measured on days 1, 3, 5, 8, and 10.
Next, the mice were sacrificed and the length of their colons were measured.
Cytokine levels of IL-6 and TNFα were measured using ELISA kits (R&D Systems, USA). Colon TNFα (FIG. 19), blood IL-6 (FIG. 20), levels were lower in mice treated with CBDA-Me (EPM-301) as compared to EPM-302. Similarly, the MEICS score of EPM-301 treated subjects were also lower than EPM-302 treated subjects (FIG. 21). Representative photos of colonoscopy can be seen in FIG. 22A-22D.

[3] = system: weight gain in rats with an adipogenic diet; test: Rat model of diet induced obesity (Teklad TD95217 adipogenic diet), weight gain; assay type: in vivo; conditions: 150 uL of 3.5 mg/ml i.p., each animal its own control (FIG. 33)
Description: The study was designed as a N-of-1 study, where each animal served as its own control. The advantage of this model is the elimination of the need for a control group and reduction of […] variation. The study was performed in two phases: a short-term study with one week exposure to EPM-301 and a long-term study with 8 weeks exposure to EPM-301 (injected daily). In the long-term study, a control group was used including animals fed the adipogenic diet.
EPM-301 was dissolved in 1:1:18 EtOH:cremophor:seline solution to final concentration of 3.5 mg/ml.
In the short-term experiment, all rats were injected i.p. 150 uL in the first day, and after a 3-day break were then injected i.p. every day for 4 days. In the long-term experiment i.p. injections of 150 uL were carried out daily for 8 weeks. Weight was measured at weeks 0, 1, 3, and 9 after injections.
The rats were weighed on a digital weight weekly in the short-term study for 3 weeks. The rats were weighed on weeks 0, 1, 3, and 9 in the long-term study.
Rats were allowed to acclimatize for 1 week, and then their weights were assessed using a digital weighing machine. Animals are fed an adipogenic diet for two weeks before starting injections.
The weights of the animals were compared at each time point and the change over time calculated. ANOVA was used to determine whether there was a significant change. […]

[4] = target: T1, glucose transporter 2 (GLUT2) (Homo sapiens, UniProt P11168); test: 2-NBDG glucose uptake in transfected HEK293t cells; assay type: cell-based; conditions: 50-0.1 μM tested
T1 construct: expressed in transfected cells; host or cells: HEK293t
T1 sequence (P11168 1-524): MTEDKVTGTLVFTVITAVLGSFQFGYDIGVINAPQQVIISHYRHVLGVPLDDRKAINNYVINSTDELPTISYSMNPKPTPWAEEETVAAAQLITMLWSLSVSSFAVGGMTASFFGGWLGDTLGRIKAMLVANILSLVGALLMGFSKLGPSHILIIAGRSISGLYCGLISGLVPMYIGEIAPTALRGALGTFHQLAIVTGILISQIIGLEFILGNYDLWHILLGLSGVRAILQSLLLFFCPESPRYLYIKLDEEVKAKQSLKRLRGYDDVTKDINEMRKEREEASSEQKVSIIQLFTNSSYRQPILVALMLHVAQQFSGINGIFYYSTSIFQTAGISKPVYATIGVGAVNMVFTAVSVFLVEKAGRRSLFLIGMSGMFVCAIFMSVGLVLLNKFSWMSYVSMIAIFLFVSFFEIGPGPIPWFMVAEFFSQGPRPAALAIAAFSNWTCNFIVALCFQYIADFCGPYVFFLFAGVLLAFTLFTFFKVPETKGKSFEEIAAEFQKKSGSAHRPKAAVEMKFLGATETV
Description: In vitro assays for measuring glucose uptake were designed to assess whether EPM-301 and EPM-302 compounds are capable of inhibiting or increasing glucose uptake via glucose transporters (GLUTs).
Transfected HEK293t cells, which express the glucose transporter 2 (GLUT2), were cultured in a 96 well plate and maintained at 37° C. in 5% CO2 in DMEM medium supplemented with 10% FCS, 2 mM 1-glutamine, 1 mM sodium pyruvate, 100 U/mL penicillin, and […] streptomycin for 24 h. The medium was then washed with a choline chloride Na^+-free buffer (CCB), in which only GLUTs (and not the sodium/glucose transporters [SGLTs]) were active. The wells were then added with CCB/CCB+2-NBDG (a fluorescent derivative of glucose). Compounds were tested in a range of concentrations for their ability to inhibit/increase 2-NBDG uptake into the cells. After 1.5 h incubation, cells were washed with CCB and incubated with 1 μg/μL of Hoechst for 15 mins at 37° C. and protected from light. Fluorescence was measured by the Cytation-3 plate reader at ex:485 nm/em:528 nm and ex:350 nm/em:461 nm for 2-NBDG Hoechst, respectively. Results of the 2-NBDG levels were normalized to Hoechst levels of each well, and presented as a change in the uptake of 2-NBDG in comparison with Vehicle-treated group.
Vehicle solution (choline chloride buffer), EPM-301 (50-0.1 μM), and EPM-302 (50-0.1 μM) were used for the experiments.
Values are expressed as mean±SEM. Unpaired two-tailed student's t-test was used to determine the differences between the groups. Significance was set at p<0.05. *versus vehicle; #versus control.

For `C=C(C)[C@@H]1CCC(C)=CC1c1c(O)cc(CCCCC)c(C(=O)OC)c1O` (stereo partly drawn) [EPM-301, cannabidiolic acid methyl ester], the gross surface score ([1]; as compared to the HA and CS treated groups (FIG. 4)) was “improvement”, the “percentage of articular surface damage” value ([1]; as compared to the HA and CS treated groups (FIG. 5)) was “less” and the osteophyte score ([1]; relative to the hyaluronic acid and the corticosteroid treatments (FIG. 3)) was “superiority”. The therapeutic effect ([2]; 10 mg/kg) was “not enough to induce a therapeutic effect”, the weight loss ([2]; 40 mg/kg by gavage, compared to CBD and EPM-302 (FIG. 17)) was “reduced” and the colon length ([2]; 40 mg/kg, versus EPM-302 and untreated mice, similar to prednisone (FIG. 18)) was “greater/longer”. The “colon TNFα” value ([2]; as compared to EPM-302, ELISA (FIG. 19)) was “lower”, the “blood IL-6” value ([2]; as compared to EPM-302, ELISA (FIG. 20)) was “lower” and the MEICS score ([2]; versus EPM-302 treated subjects (FIG. 21)) was “lower”. The “weight gain, short-term study” value [3] was “halting”, the “concentration at which the effect on glucose transport was observed” value [4] was 50 µM and the “glucose uptake (2-NBDG) in HEK293 cells” value ([4]; 1.5 h incubation, versus vehicle (FIG. 36A, 36B)) was “significantly reduce”.
